Assay results as given in PubChem BioAssay AID602273 (Broad Institute, 2012).
Activity calls are given as the source filed them. How the calls were made is not given here.

Test: rescue of alpha-synuclein yeast toxicity, dose response, S. cerevisiae, plate reader, cherry-pick (AID 602273)
Settings: S. cerevisiae alpha-synuclein toxicity rescue, OD600 growth, 24 h; at 26 µM (top of the series)
With `C/C(=N\NC(=O)c1ccoc1C)c1cccc2ccccc12` the growth rescue activity was 8.58% (inactive).
With `CC(=O)Cc1cc(O)c2ccccc2c1OC(=O)c1ccccc1` the growth rescue activity was -0.443% (inactive).
For `CC(=O)Nc1cccc(NC(=O)CSc2ncc(C(=O)Nc3ccccc3)c(=O)n2C)c1`, the growth rescue activity was -9.48% (inactive).
For `CC(=O)c1cccc(N(CC(=O)Nc2ccc(F)cc2F)S(C)(=O)=O)c1`, the growth rescue activity was 2.96% (inactive).
With `O=C1C2CC=CCC2C(=O)N1Cc1nnc(-c2ccc(Cl)cc2)o1` (stereo unspecified) the growth rescue activity was -2.43% (inactive).
In the case of `Cn1cc([N+](=O)[O-])c(C(=O)Nc2ccc(-c3nc4ccccc4[nH]3)cc2)n1`, the growth rescue activity is reported as -1.83% (inactive).
For `Cc1[nH]c2ccccc2c1/C=C(\C#N)C(=O)NCC1CCCO1` (stereo unspecified), the growth rescue activity was 4.73% (inactive).
In the case of `O=C(OCc1csc(-c2ccccc2)n1)c1cccs1`, the growth rescue activity is reported as 0.967% (inactive).
For `C=CCn1c(C)cc(C(=O)CSc2nc(N)cc(N)n2)c1C`, the growth rescue activity was 0.814% (inactive).
In the case of `Cc1ccc(C(=O)CNc2ccc(Cl)cc2)cc1`, the growth rescue activity is reported as 5.52% (inactive).
With `COc1ccc2cc(/C=C/C(=O)N3CCN(CC(=O)N4CCCCCC4)CC3)ccc2c1` the growth rescue activity was -2.63% (inactive).
With `COc1cccc(-c2nnc(SCc3nc4ccccc4[nH]3)n2N)c1` the growth rescue activity was 1.34% (inactive).
For `COC(=O)C(C)Sc1ncnc2c1nnn2-c1ccc(F)cc1` (stereo unspecified), the growth rescue activity was -1.99% (inactive).
In the case of `c1ccc2c(Nc3nnc(-c4ccncc4)s3)cccc2c1`, the growth rescue activity is reported as -9.03% (inactive).
With `Cc1cc(C(=O)N2CCN(c3ccccn3)CC2)c(C)o1` the growth rescue activity was -0.518% (inactive).
For `CC(=O)c1ccc(NC(=O)CCCN2C(=O)/C(=C/C(C)=C/c3ccccc3)SC2=S)cc1`, the growth rescue activity was -5.11% (inactive).
With `CCN(CC)CCCNC(=O)CSc1c2c(nc3cc(Cl)ccc13)CCCC2` the growth rescue activity was 3.73% (inactive).
For `O=C(NCc1cccc(F)c1)c1noc2c1CCCC2`, the growth rescue activity was 10.6% (inactive).
For `CC(C)(C)c1ccc(COc2ccsc2C(=O)O)cc1`, the growth rescue activity was -21.6% (inactive).
With `CCC1(C)N=C(N)Nc2nc3cc(C)c(C)cc3n21` (stereo unspecified) the growth rescue activity was -2.62% (inactive).
For `O=C(CC12CCC(CC1)C2)NCc1ccc2c(c1)OCO2`, the growth rescue activity was 2.83% (inactive).
In the case of `CC(C)OC(=O)c1ccc(COc2ccc3ccc(=O)oc3c2)o1`, the growth rescue activity is reported as 2.08% (inactive).
For `CC1CC(C)(C)N(C(=O)NC2CCCCC2)c2ccccc21` (stereo unspecified), the growth rescue activity was 12.6% (inactive).
With `c1ccc(N2CC3CCc4ccccc4C3=N2)cc1` (stereo unspecified) the growth rescue activity was 11.6% (inactive).
For `Cc1c(/C=N/NC(=O)c2ccc(Br)o2)cnn1C`, the growth rescue activity was -2.43% (inactive).
For `CC(=O)N1N=C(c2ccccc2)CC1c1ccccc1[N+](=O)[O-]` (stereo unspecified), the growth rescue activity was 2.51% (inactive).
In the case of `O=c1[nH]n(CC2COC3(CCCCC3)O2)c(=O)c2ccccc12` (stereo unspecified), the growth rescue activity is reported as -3.22% (inactive).
For `C=CCN1C(=O)C(Cc2ccc(OCC)cc2)SC1=Nc1ccc(C(=O)O)cc1` (stereo unspecified), the growth rescue activity was 18.5% (inactive).
In the case of `Cc1[nH]n(-c2ccccc2)c(=O)c1C=NCCc1ccccc1`, the growth rescue activity is reported as 5.9% (inactive).
With `CC1(C)CC(=O)C2=C(C1)Nc1cc3c(cc1C2c1ccc2c(c1)OCO2)OCO3` (stereo unspecified) the growth rescue activity was 11.9% (inactive).
With `N#Cc1ccc(OCCN2CCc3ccccc3C2)cc1` the growth rescue activity was 4.6% (inactive).
For `O=C(Nc1ccccc1C(=O)OCC(=O)c1c[nH]c2ccccc12)c1ccco1`, the growth rescue activity was 5.29% (inactive).
For `O=c1[nH][nH]c(-c2ccccc2O)c1C(C[N+](=O)[O-])c1ccccc1` (stereo unspecified), the growth rescue activity was 0.55% (inactive).
With `Cc1csc2nc(CCNS(=O)(=O)c3cccs3)cn12` the growth rescue activity was 3.48% (inactive).
With `C/C(Cn1cnc([N+](=O)[O-])n1)=N\NC(=O)c1ccccc1F` the growth rescue activity was -2.85% (inactive).
In the case of `Nc1nnc(SCc2c(F)cccc2Cl)s1`, the growth rescue activity is reported as 4.49% (inactive).
With `COc1ccc(C(=O)Cn2c(C(=O)/C=C/c3ccccc3)nc3ccccc32)cc1` the growth rescue activity was 1.68% (inactive).
With `Cc1cccc(NCc2nc3ccccc3n2C)c1` the growth rescue activity was -1.89% (inactive).
In the case of `CC(C)(CNC(=O)/C=C/c1ccc(F)cc1)CNC(=O)/C=C/c1ccc(F)cc1`, the growth rescue activity is reported as 0.36% (inactive).
In the case of `O=C(O)CC1=C(Nc2ccccc2)C(=O)N(c2ccccc2)C1c1ccc(Cl)cc1` (stereo unspecified), the growth rescue activity is reported as 7.05% (inactive).
With `Cn1c(CO)cnc1SCC(=O)c1ccc(Cl)cc1` the growth rescue activity was 4.95% (inactive).
With `CCOc1cccc(/C=C/c2ccc3cccc(O)c3n2)c1OC` the growth rescue activity was -2.49% (inactive).
In the case of `CC1(C)CC(=O)C2=C(C1)OC(N)=C(C#N)C2C#Cc1ccccc1` (stereo unspecified), the growth rescue activity is reported as 8.43% (inactive).
In the case of `Brc1cnc2nc(SC/C=C/c3ccccc3)[nH]c2c1`, the growth rescue activity is reported as 0.58% (inactive).
For `Cc1ccc2cccnc2c1NC(=S)NC(=O)c1ccccc1`, the growth rescue activity was -4.6% (inactive).
For `CCN(CC)CCn1c2ccccc2c2nc3ccc([N+](=O)[O-])cc3cc21`, the growth rescue activity was 0.822% (inactive).
In the case of `O=C1NC(=S)S/C1=C/c1ccc(OC(=O)c2ccco2)cc1`, the growth rescue activity is reported as 9.87% (inactive).
For `O=C(/C=C/Sc1ccccc1)c1ccccc1`, the growth rescue activity was 3.99% (inactive).
For `O=C1NCC2=C1C(c1ccc(Br)cc1)Nc1ccccc1N2` (stereo unspecified), the growth rescue activity was -8.45% (inactive).
In the case of `CCCSc1nnc(Sc2nnnn2-c2ccccc2)s1`, the growth rescue activity is reported as 4.13% (inactive).
For `O=c1[nH]c2c(s1)C=Nc1ccccc1N2`, the growth rescue activity was 4.6% (inactive).
In the case of `CCOC(=O)C1=NN(C(=O)c2ccccc2)C(O)(c2ccc(C)cc2)C1` (stereo unspecified), the growth rescue activity is reported as 10.9% (inactive).
In the case of `Oc1[nH]c(N=C2N=c3ccccc3=N2)c2ccccc12`, the growth rescue activity is reported as -26.4% (inactive).
In the case of `Cc1cc(C)n(CC(O)COc2ccc(Cl)cc2Cl)n1` (stereo unspecified), the growth rescue activity is reported as 9.05% (inactive).
With `C[C@H](NC(=O)[C@@H]1CSC2c3ccccc3C(=O)N21)C(=O)NCCc1ccccc1` (stereo partly specified) the growth rescue activity was -5.08% (inactive).
In the case of `COc1ccc(-c2nc3scc(-c4ccccc4)n3n2)cc1`, the growth rescue activity is reported as -0.958% (inactive).
For `Cc1nc2ccccc2nc(C)c1=NOCc1ccccc1Cl`, the growth rescue activity was 0.053% (inactive).
With `CN(CCC1CCCCO1)C(=O)CCc1nnc(CCCCc2ccccc2)o1` (stereo unspecified) the growth rescue activity was 1.7% (inactive).
For `CCCCC(=O)OCC(=O)c1[nH]c(C)c(C(=O)OCC)c1C`, the growth rescue activity was 2.65% (inactive).
In the case of `Nc1ccc(Sc2cnn(-c3ccccc3)c(=O)c2Cl)cc1`, the growth rescue activity is reported as 1.77% (inactive).
With `Cc1ccc(N2C(=O)NC(=O)/C(=C\C=C\c3ccco3)C2=O)cc1C` the growth rescue activity was 1.5% (inactive).
For `COc1ccc(C(=O)n2nc(C)cc2Nc2ccccc2)cc1`, the growth rescue activity was 2.84% (inactive).
With `O=C(Nc1ccc2c(c1)C(=O)OC2)c1ccc(Cl)cc1` the growth rescue activity was -1.79% (inactive).
For `COC(=O)C1CCN(C(=O)COC(=O)c2ccc(OC)c(S(=O)(=O)N3CCCc4ccccc43)c2)CC1`, the growth rescue activity was -1.07% (inactive).
For `Cc1cc(C)nc(S/C=C/C(=O)c2ccccc2F)n1`, the growth rescue activity was 1.06% (inactive).
In the case of `COC(=O)[C@@H](Cc1c[nH]c2ccccc12)NC(=O)c1ccc2c(c1)OCO2`, the growth rescue activity is reported as 0.758% (inactive).
In the case of `CCc1c(C)sc(NC(=O)c2ccc(Br)o2)c1C(=O)OC`, the growth rescue activity is reported as 5.35% (inactive).
With `COc1ccc(CCNc2oc(-c3ccccc3OC)nc2C#N)cc1` the growth rescue activity was 1.38% (inactive).
For `O=C(NC1CCSc2ccccc21)c1ccccc1Cl` (stereo unspecified), the growth rescue activity was -4.11% (inactive).
In the case of `CC(=O)Nc1nnc(SCC(=O)c2ccc(F)cc2)s1`, the growth rescue activity is reported as -0.765% (inactive).
In the case of `O=C(Cc1cccs1)NCc1ccccc1Br`, the growth rescue activity is reported as -5.14% (inactive).
With `COc1ccc(OCc2nnnn2-c2ccccc2)cc1` the growth rescue activity was -3.39% (inactive).
For `COc1ccc(NC(=O)COC(=O)/C=C/C(=O)OCC(=O)Nc2ccc(OC)c(Cl)c2)cc1Cl`, the growth rescue activity was 3.29% (inactive).
With `Fc1ccccc1-c1nc2nc3ccccc3nc2n1CC1CCCO1` (stereo unspecified) the growth rescue activity was 11.6% (inactive).
With `Cc1ccc(-n2cc(CNCCN3CCOC3=O)c(-c3cccc(C)c3)n2)cc1` the growth rescue activity was 0.352% (inactive).
In the case of `CN(Cc1nnc(-c2ccc(F)cc2)o1)c1ccccc1`, the growth rescue activity is reported as 8.17% (inactive).
With `Cc1cc(-c2nnc(CCC(=O)N(C)Cc3cccc4ccccc34)o2)no1` the growth rescue activity was 8.5% (inactive).
With `CCCc1nc(SCC(=O)Nc2cc(C)on2)c2ccccc2n1` the growth rescue activity was 4.07% (inactive).
In the case of `COc1ccc(S(=O)(=O)n2nc(OC(=O)c3ccccc3Br)cc2N)cc1`, the growth rescue activity is reported as -9.27% (inactive).
For `CCn1c(SCC(=O)c2ccc(Cl)cc2)nnc1-c1ccoc1C`, the growth rescue activity was 2.33% (inactive).
With `O=C1S/C(=C\c2ccc(N3CCOCC3)o2)C(=O)N1Cc1c(F)cccc1Cl` the growth rescue activity was -0.523% (inactive).
For `Cc1cccc(-c2cc(C(=O)Nc3ccncc3)c3ccccc3n2)c1`, the growth rescue activity was 1.56% (inactive).
With `CCOC(=O)CC(=O)CSCC(=O)Nc1ccc(C)cc1` the growth rescue activity was -1.13% (inactive).
In the case of `O=C(O)CSc1nc2ccccc2nc1Cc1ccccc1F`, the growth rescue activity is reported as 5.3% (inactive).
In the case of `CCSc1nnc(NC(=O)c2cccnc2Cl)s1`, the growth rescue activity is reported as -4.76% (inactive).
In the case of `CC(C)C(=O)N1CCC(n2nccc2NC(=O)CCOc2ccccc2)CC1`, the growth rescue activity is reported as -1.45% (inactive).
With `COc1ccccc1C(=O)CSc1nnc(-c2ccco2)o1` the growth rescue activity was -9.45% (inactive).
For `Cc1nc(SCCOc2ccc(F)cc2)c2ccccc2n1`, the growth rescue activity was -1.07% (inactive).
In the case of `Cc1ccc(/C=C2\Oc3cc(OC(=O)N4CCOCC4)ccc3C2=O)cc1`, the growth rescue activity is reported as -7.43% (inactive).
For `COc1ccc2c(c1OC)C(=O)OC2Nc1nc(-c2ccccc2)cs1` (stereo unspecified), the growth rescue activity was 3.17% (inactive).
In the case of `CCOC(=O)Nc1ccc(C(=O)Oc2ccccc2)c(O)c1`, the growth rescue activity is reported as -4.86% (inactive).
In the case of `CCOC(=O)C1(Cc2ccc(OC)cc2)CCN(C(=O)c2cc3ccccc3[nH]2)CC1`, the growth rescue activity is reported as 1.19% (inactive).
In the case of `Cc1ccc(CNC(=O)CSc2ccsc2[N+](=O)[O-])cc1`, the growth rescue activity is reported as 2.48% (inactive).
For `COc1ccc(/C=C2/SC(=O)N(CCNC(=O)C3COc4ccccc4O3)C2=O)cc1` (stereo unspecified), the growth rescue activity was 5.56% (inactive).
With `O=C(CSc1ccc(Cl)cc1)N1CCN(c2c(Cl)cccc2[N+](=O)[O-])CC1` the growth rescue activity was -19.7% (inactive).
In the case of `O=C(CSc1nnc(-c2c[nH]c3ccccc23)n1-c1ccc(F)cc1)NCc1ccco1`, the growth rescue activity is reported as 0.096% (inactive).
